Results on nine molecules are retold here after patent US10344060B2 (priority 2013, dated 2019).

pIC50: −log10 of the molar value.

Holding throughout (assay): cell-based
What all share (type): cell-based

Test [1] deals with T1, hNav1.4 (Homo sapiens, UniProt P35499). Particulars: ratio of IonWorks Quattro IC50 values.
For test [2], the target named is T1, hNav1.4. Particulars: Table 12; for pIC50: PatchXpress, tonic block, read-out: PX hNav1.4 Tonic IC50; for Nav1.4/Nav1.7: ratio of PX tonic IC50 values.
The next test has as its target hNav1.7 (Homo sapiens, UniProt Q15858). The following applies: Table 12; PatchXpress, tonic block; read-out: PX hNav1.7 Tonic IC50.

Chain of hNav1.7 (Q15858 whole entry): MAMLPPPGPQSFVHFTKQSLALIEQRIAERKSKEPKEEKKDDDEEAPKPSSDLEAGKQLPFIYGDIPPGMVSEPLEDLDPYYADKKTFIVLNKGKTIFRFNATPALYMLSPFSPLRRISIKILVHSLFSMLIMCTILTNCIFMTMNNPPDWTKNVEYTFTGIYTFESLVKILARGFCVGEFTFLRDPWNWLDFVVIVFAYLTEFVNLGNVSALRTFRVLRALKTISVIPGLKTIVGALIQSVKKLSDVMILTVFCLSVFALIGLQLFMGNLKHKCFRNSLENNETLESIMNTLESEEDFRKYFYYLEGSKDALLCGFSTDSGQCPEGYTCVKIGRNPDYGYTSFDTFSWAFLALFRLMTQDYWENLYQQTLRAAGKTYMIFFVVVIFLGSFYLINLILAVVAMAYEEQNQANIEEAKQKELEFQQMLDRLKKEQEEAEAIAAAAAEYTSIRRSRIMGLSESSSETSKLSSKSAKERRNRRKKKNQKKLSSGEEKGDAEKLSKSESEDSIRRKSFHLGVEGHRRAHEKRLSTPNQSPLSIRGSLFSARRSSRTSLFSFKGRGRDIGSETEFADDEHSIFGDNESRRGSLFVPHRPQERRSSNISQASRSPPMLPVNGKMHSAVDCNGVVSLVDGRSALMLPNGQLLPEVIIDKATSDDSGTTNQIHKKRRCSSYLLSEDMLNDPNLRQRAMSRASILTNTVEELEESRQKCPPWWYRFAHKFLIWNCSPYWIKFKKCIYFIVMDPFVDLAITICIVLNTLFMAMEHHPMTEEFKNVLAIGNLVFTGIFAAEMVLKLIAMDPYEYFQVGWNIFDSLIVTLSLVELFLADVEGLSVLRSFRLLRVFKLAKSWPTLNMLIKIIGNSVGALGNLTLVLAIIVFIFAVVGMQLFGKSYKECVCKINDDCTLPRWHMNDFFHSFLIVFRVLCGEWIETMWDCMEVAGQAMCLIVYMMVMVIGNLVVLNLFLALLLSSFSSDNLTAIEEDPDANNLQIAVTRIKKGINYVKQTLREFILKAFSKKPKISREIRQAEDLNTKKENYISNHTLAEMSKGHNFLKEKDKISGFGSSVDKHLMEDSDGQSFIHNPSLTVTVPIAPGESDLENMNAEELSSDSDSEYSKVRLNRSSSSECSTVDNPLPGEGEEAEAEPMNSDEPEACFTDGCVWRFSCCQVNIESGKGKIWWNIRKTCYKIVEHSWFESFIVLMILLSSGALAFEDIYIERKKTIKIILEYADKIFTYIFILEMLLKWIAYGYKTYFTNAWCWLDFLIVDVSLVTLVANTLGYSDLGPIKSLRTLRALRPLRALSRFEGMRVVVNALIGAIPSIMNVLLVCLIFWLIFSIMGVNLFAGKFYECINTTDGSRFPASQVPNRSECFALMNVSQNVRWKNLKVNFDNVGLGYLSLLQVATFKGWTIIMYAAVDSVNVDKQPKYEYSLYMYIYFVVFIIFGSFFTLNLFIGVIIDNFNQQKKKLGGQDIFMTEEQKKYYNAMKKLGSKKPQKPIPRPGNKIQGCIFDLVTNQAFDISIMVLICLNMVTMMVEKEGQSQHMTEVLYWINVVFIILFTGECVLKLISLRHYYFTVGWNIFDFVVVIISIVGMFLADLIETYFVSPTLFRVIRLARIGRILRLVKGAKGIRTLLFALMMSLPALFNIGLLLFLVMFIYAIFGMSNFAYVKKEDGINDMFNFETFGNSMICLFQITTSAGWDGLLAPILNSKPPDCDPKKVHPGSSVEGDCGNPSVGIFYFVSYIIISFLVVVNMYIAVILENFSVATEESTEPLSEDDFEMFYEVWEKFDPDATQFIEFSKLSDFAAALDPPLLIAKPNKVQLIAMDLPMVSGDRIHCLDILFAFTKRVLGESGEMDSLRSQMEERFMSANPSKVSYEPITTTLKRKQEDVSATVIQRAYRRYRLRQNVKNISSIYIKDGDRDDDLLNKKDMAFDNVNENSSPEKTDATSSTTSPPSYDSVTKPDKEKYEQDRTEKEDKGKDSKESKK
T1 sequence (P35499 whole entry): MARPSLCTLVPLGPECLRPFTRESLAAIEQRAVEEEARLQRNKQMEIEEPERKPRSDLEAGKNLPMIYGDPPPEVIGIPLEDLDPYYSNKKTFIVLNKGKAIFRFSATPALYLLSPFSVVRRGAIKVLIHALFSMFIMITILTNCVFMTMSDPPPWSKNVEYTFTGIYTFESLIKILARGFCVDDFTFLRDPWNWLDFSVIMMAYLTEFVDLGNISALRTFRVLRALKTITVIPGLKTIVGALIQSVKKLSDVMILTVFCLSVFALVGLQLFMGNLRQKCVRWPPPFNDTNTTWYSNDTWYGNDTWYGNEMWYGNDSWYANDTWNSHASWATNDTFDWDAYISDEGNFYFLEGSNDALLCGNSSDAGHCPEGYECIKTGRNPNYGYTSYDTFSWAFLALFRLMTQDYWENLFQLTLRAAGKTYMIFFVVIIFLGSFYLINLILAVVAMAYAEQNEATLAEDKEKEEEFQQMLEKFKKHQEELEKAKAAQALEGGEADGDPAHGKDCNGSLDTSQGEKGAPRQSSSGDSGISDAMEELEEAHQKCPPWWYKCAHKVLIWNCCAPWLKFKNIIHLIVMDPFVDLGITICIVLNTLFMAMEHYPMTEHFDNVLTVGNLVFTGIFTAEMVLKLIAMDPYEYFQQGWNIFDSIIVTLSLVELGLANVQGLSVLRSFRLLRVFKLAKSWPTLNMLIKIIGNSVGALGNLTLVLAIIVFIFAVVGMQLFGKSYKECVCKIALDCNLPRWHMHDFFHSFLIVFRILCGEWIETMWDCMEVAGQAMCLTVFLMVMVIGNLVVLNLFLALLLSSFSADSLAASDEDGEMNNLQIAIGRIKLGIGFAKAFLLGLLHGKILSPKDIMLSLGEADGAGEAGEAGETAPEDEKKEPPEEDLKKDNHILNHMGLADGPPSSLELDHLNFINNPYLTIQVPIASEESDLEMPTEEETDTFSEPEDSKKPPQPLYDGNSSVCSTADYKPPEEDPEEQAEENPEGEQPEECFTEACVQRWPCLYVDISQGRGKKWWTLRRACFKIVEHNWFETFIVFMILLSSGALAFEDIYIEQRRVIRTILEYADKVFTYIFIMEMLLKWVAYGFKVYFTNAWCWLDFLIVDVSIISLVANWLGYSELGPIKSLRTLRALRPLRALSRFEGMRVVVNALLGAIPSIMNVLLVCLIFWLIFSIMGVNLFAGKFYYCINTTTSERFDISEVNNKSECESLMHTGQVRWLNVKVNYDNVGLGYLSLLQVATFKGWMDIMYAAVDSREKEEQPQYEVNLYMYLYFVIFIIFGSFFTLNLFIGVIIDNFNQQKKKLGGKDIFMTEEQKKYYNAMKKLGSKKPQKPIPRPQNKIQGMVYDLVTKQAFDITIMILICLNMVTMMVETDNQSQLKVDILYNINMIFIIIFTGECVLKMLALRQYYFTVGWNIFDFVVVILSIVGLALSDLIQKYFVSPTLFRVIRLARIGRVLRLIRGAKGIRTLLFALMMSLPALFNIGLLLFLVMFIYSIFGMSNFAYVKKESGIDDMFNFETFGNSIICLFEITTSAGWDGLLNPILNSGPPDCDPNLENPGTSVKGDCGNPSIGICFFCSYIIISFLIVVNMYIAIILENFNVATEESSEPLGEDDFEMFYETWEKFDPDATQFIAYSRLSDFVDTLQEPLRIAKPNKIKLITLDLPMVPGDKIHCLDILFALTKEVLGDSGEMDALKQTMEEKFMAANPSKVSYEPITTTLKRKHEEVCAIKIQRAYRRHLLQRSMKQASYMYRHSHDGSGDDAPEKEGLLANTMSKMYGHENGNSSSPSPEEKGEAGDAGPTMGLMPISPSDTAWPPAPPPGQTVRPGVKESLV

`CC[C@H](C)[C@H](NC(=O)[C@@H](NC(=O)[C@H](CCCCN)NC(=O)[C@H](CCCNC(=N)N)NC(=O)[C@@H]1CSSC[C@@H]2NC(=O)[C@H](C)NC(=O)[C@H](CCCNC(=N)N)NC(=O)[C@H](CCCCN)NC(=O)[C@H](CO)NC(=O)[C@H](CC(=O)O)NC(=O)[C@@H]3CSSC[C@H](NC(=O)[C@H](CCCNC(=N)N)NC(=O)[C@H](CC(C)C)NC(=O)CNC(=O)[C@H](Cc4cccc5ccccc45)NC(=O)[C@H](CSSC[C@H](NC(=O)[C@@H](N)Cc4ccc(O)cc4)C(=O)N[C@@H](CCC(N)=O)C(=O)N[C@@H](CCCCN)C(=O)N[C@@H](Cc4c[nH]c5ccccc45)C(=O)N[C@@H](CCSC)C(=O)N[C@@H](Cc4c[nH]c5ccccc45)C(=O)N[C@@H]([C@@H](C)O)C(=O)N3)NC2=O)C(=O)N[C@@H](CCCCN)C(=O)N[C@@H](CC(C)C)C(=O)N[C@@H](Cc2c[nH]c3ccccc23)C(=O)N1)[C@@H](C)CC)C(N)=O` [compound 37]: the Nav1.4/Nav1.7 at hNav1.4 [1] (Table 6) came to 4. On the same count and under the same terms, with `CC[C@H](C)[C@H](NC(=O)[C@@H](NC(=O)[C@H](CCCCN)NC(=O)[C@H](CCCNC(=N)N)NC(=O)[C@@H]1CSSC[C@@H]2NC(=O)[C@H](C)NC(=O)[C@H](CCCNC(=N)N)NC(=O)[C@H](CCCCN)NC(=O)[C@H](CO)NC(=O)[C@H](CC(=O)O)NC(=O)[C@@H]3CSSC[C@H](NC(=O)[C@H](CCCNC(=N)N)NC(=O)[C@H](CC(C)C)NC(=O)CNC(=O)[C@H](CCC(=O)O)NC(=O)[C@H](CSSC[C@H](NC(=O)[C@@H](N)Cc4ccc(O)cc4)C(=O)N[C@@H](CCC(N)=O)C(=O)N[C@@H](CCCCN)C(=O)N[C@@H](Cc4c[nH]c5ccccc45)C(=O)N[C@@H](CCSC)C(=O)N[C@@H](Cc4c[nH]c5ccccc45)C(=O)N[C@@H]([C@@H](C)O)C(=O)N3)NC2=O)C(=O)N[C@@H](CCCCN)C(=O)N[C@@H](Cc2cccc3ccccc23)C(=O)N[C@@H](Cc2c[nH]c3ccccc23)C(=O)N1)[C@@H](C)CC)C(N)=O` [compound 42] the figure was 3. With `CC[C@H](C)[C@H](NC(=O)[C@@H](NC(=O)[C@H](CCCCN)NC(=O)[C@H](CCCNC(=N)N)NC(=O)[C@@H]1CSSC[C@@H]2NC(=O)[C@H](C)NC(=O)[C@H](CCCNC(=N)N)NC(=O)[C@H](CCCCN)NC(=O)[C@H](CO)NC(=O)[C@H](CC(=O)O)NC(=O)[C@@H]3CSSC[C@H](NC(=O)[C@H](CCC(=O)O)NC(=O)[C@H](CC(C)C)NC(=O)CNC(=O)[C@H](CCC(=O)O)NC(=O)[C@H](CSSC[C@H](NC(=O)[C@@H](N)Cc4cn(CCCOCCOCCOCCOCCOCCOCCOCCOCCOCCOCCN)nn4)C(=O)N[C@@H](CCC(N)=O)C(=O)N[C@@H](CCCCN)C(=O)N[C@@H](Cc4c[nH]c5ccccc45)C(=O)N[C@@H](CCSC)C(=O)N[C@@H](Cc4c[nH]c5ccccc45)C(=O)N[C@@H]([C@@H](C)O)C(=O)N3)NC2=O)C(=O)N[C@@H](CCCCN)C(=O)N[C@@H](CC(C)C)C(=O)N[C@@H](Cc2c[nH]c3ccccc23)C(=O)N1)[C@@H](C)CC)C(N)=O` [compound 165], the Nav1.4/Nav1.7 on hNav1.4 [1] (Table 9) is given as 28.

As to `CC[C@H](C)[C@H](NC(=O)[C@@H](NC(=O)[C@H](CCCCN)NC(=O)[C@H](CCCNC(=N)N)NC(=O)[C@@H]1CSSC[C@@H]2NC(=O)[C@H](C)NC(=O)[C@H](CCCNC(=N)N)NC(=O)[C@H](CCCCN)NC(=O)[C@H](CO)NC(=O)[C@H](CC(=O)O)NC(=O)[C@@H]3CSSC[C@H](NC(=O)[C@H](CCC(=O)O)NC(=O)[C@H](CC(C)C)NC(=O)CNC(=O)[C@H](Cc4cn(CCCOCCOCCOCCOCCOCCOCCOCCOCCOCCOCCN)nn4)NC(=O)[C@H](CSSC[C@H](NC(=O)[C@@H](N)Cc4ccc(O)cc4)C(=O)N[C@@H](CCC(N)=O)C(=O)N[C@@H](CCCCN)C(=O)N[C@@H](Cc4c[nH]c5ccccc45)C(=O)N[C@@H](CCSC)C(=O)N[C@@H](Cc4c[nH]c5ccccc45)C(=O)N[C@@H]([C@@H](C)O)C(=O)N3)NC2=O)C(=O)N[C@@H](CCCCN)C(=O)N[C@@H](CC(C)C)C(=O)N[C@@H](Cc2c[nH]c3ccccc23)C(=O)N1)[C@@H](C)CC)C(N)=O` [compound 178], on hNav1.4 [1] (Table 9), the Nav1.4/Nav1.7 is on record as 28. Regarding `CC[C@H](C)[C@H](NC(=O)[C@@H](NC(=O)[C@H](CCCCN)NC(=O)[C@H](CCCNC(=N)N)NC(=O)[C@@H]1CSSC[C@@H]2NC(=O)[C@H](C)NC(=O)[C@H](CCCNC(=N)N)NC(=O)[C@H](CCCCN)NC(=O)[C@H](CO)NC(=O)[C@H](CC(=O)O)NC(=O)[C@@H]3CSSC[C@H](NC(=O)[C@H](CCC(=O)O)NC(=O)[C@H](CC(C)C)NC(=O)CNC(=O)[C@H](CCC(=O)O)NC(=O)[C@H](CSSC[C@H](NC(=O)[C@@H](N)Cc4ccc(O)cc4)C(=O)N[C@@H](CCC(N)=O)C(=O)N[C@@H](CCCCN)C(=O)N[C@@H](Cc4c[nH]c5ccccc45)C(=O)N[C@@H](CCSC)C(=O)N[C@@H](Cc4c[nH]c5ccccc45)C(=O)N[C@@H]([C@@H](C)O)C(=O)N3)NC2=O)C(=O)N[C@@H](CCCCN)C(=O)N[C@@H](Cc2cn(CCCOCCOCCOCCOCCOCCOCCOCCOCCOCCOCCN)nn2)C(=O)N[C@@H](Cc2c[nH]c3ccccc23)C(=O)N1)[C@@H](C)CC)C(N)=O` [compound 183], the Nav1.4/Nav1.7 at hNav1.4 [1] (Table 9) worked out at 1. Turning to `C#CC[C@H](N)C(=O)N[C@@H](Cc1ccc(O)cc1)C(=O)N[C@H]1CSSC[C@@H]2NC(=O)[C@@H]3CSSC[C@@H](C(=O)N[C@@H](CCCNC(=N)N)C(=O)N[C@@H](CCCCN)C(=O)N[C@@H](CCC(=O)O)C(=O)N[C@H](C(N)=O)[C@@H](C)CC)NC(=O)[C@H](Cc4c[nH]c5ccccc45)NC(=O)[C@H](CC(C)C)NC(=O)[C@H](CCCCN)NC(=O)[C@H](CSSC[C@H](NC(=O)[C@H]([C@@H](C)O)NC(=O)[C@H](Cc4c[nH]c5ccccc45)NC(=O)[C@H](CCCC)NC(=O)[C@H](CCc4ccc(Br)cc4)NC(=O)[C@H](CCCCN)NC(=O)[C@H](CCC(N)=O)NC1=O)C(=O)N[C@@H](CC(=O)O)C(=O)N[C@@H](CO)C(=O)N[C@@H](CCCCN)C(=O)N[C@@H](CCCNC(=N)N)C(=O)N[C@@H](C)C(=O)N3)NC(=O)[C@H](CCCNC(=N)N)NC(=O)[C@H](CC(C)C)NC(=O)CNC(=O)[C@H](CCC(=O)O)NC2=O` [compound 1603], the negative logarithm of the IC50 (pIC50) on hNav1.4 [2] is 7.32; on hNav1.7 it was 9.64. Besides, the Nav1.4/Nav1.7 on hNav1.4 [2] is 207.

For `C#CC[C@@H]1NC(=O)[C@@H]2CSSC[C@H](NC(=O)[C@H](Cc3ccc(O)cc3)NC(=O)[C@@H](N)CC#N)C(=O)N[C@@H](CCC(N)=O)C(=O)N[C@@H](CCCCN)C(=O)N[C@@H](Cc3c[nH]c4ccccc34)C(=O)N[C@@H](CCCC)C(=O)N[C@@H](Cc3c[nH]c4ccccc34)C(=O)N[C@@H]([C@@H](C)O)C(=O)N[C@H]3CSSC[C@H](NC(=O)[C@H](CCCNC(=N)N)NC(=O)[C@H](CC(C)C)NC(=O)CNC1=O)C(=O)N[C@@H](CCCCN)C(=O)N[C@@H](CC(C)C)C(=O)N[C@@H](Cc1c[nH]c4ccc(C)cc14)C(=O)N[C@H](C(=O)N[C@@H](CCCNC(=N)N)C(=O)N[C@@H](CCCCN)C(=O)N[C@@H](CCC(=O)O)C(=O)N[C@H](C(N)=O)[C@@H](C)CC)CSSC[C@H](NC(=O)[C@H](C)NC(=O)[C@H](CCCNC(=N)N)NC(=O)[C@H](CCCCN)NC(=O)[C@H](CO)NC(=O)[C@H](CC(=O)O)NC3=O)C(=O)N2` [compound 1662], on hNav1.4 [2], the negative logarithm of the IC50 (pIC50) was 7.05 and the Nav1.4/Nav1.7 came out at 172. Also, on hNav1.7, the pIC50 is 9.28.

For `C#CC[C@@H]1NC(=O)[C@@H]2CSSC[C@H](NC(=O)[C@@H](N)CC#N)C(=O)N[C@@H](CCC(N)=O)C(=O)N[C@@H](CCCCN)C(=O)N[C@@H](Cc3c[nH]c4ccccc34)C(=O)N[C@@H](CCCC)C(=O)N[C@@H](Cc3c[nH]c4ccccc34)C(=O)N[C@@H]([C@@H](C)O)C(=O)N[C@H]3CSSC[C@H](NC(=O)[C@H](CCCNC(=N)N)NC(=O)[C@H](CC(C)C)NC(=O)CNC1=O)C(=O)N[C@@H](CCCCN)C(=O)N[C@@H](CC(C)C)C(=O)N[C@@H](Cc1c[nH]c4ccccc14)C(=O)N[C@H](C(=O)N[C@@H](CCCNC(=N)N)C(=O)N[C@@H](CCCCN)C(=O)N[C@@H](CCC(=O)O)C(=O)N[C@H](C(N)=O)[C@@H](C)CC)CSSC[C@H](NC(=O)[C@H](C)NC(=O)[C@H](CCCNC(=N)N)NC(=O)[C@H](CCCCN)NC(=O)[C@H](CCC(=O)O)NC(=O)[C@H](CC(=O)O)NC3=O)C(=O)N2` [compound 1672], on hNav1.4 [2], the negative-log IC50 (pIC50) was 6.34 and the Nav1.4/Nav1.7 is on record as 159. Moreover, the negative logarithm of the IC50 (pIC50) at hNav1.7 was 8.54. With `C#CC[C@H](N)C(=O)N[C@H]1CSSC[C@@H]2NC(=O)[C@@H]3CSSC[C@@H](C(=O)N[C@@H](CCCNC(=N)N)C(=O)N[C@@H](CCCCN)C(=O)N[C@@H](CCC(=O)O)C(=O)N[C@H](C(N)=O)[C@@H](C)CC)NC(=O)[C@H](Cc4c[nH]c5ccccc45)NC(=O)[C@H](CC(C)C)NC(=O)[C@H](CCCCN)NC(=O)[C@H](CSSC[C@H](NC(=O)[C@H]([C@@H](C)O)NC(=O)[C@H](Cc4c[nH]c5ccccc45)NC(=O)[C@H](CCCC)NC(=O)[C@H](Cc4c[nH]c5ccccc45)NC(=O)[C@H](CCCCN)NC(=O)[C@H](CCC(N)=O)NC1=O)C(=O)N[C@@H](CC(=O)O)C(=O)N[C@@H](CO)C(=O)N[C@@H](CCCCN)C(=O)N[C@@H](CCCNC(=N)N)C(=O)N[C@@H](C)C(=O)N3)NC(=O)[C@H](C(C)C)NC(=O)[C@H](CC(C)C)NC(=O)CNC(=O)[C@H](CCC(=O)O)NC2=O` [compound 1688], the pIC50 at hNav1.4 [2] was 5.95; on hNav1.7, 8.40. The Nav1.4/Nav1.7 on hNav1.4 [2] is 280.
